Paper PMC7809101, “Fetal bovine serum albumin inhibits antimicrobial peptide activity and binds drug only in complex with α1-antitrypsin” (Scientific Reports, 2021)

Tests used:
[1] = biological target: T1, protein D (albumin and α1-antitrypsin complex) (Bos taurus, UniProt P02769+P34955); test: Fluorescence emission spectrum (blue shift), protein D; type: binding, bovine; conditions: protein D 0.75 μM, PC buffer, 25 °C, 30 min; excitation 285 nm, emission 300–450 nm; reagent up to: sarkosyl 320, TP4-A12I,A15I 120, ibuprofen 24, phenytoin 20 μM
T1 construct: The active components were further purified by fast performance liquid chromatography (FPLC) Mono Q and S12 column chromatography from the 70% saturated fraction; from tissue; host or cells: fetal bovine serum (70% ammonium sulfate fraction, FPLC Mono Q and Superose 12)
T1 sequence (P02769 25-607, one chain of several): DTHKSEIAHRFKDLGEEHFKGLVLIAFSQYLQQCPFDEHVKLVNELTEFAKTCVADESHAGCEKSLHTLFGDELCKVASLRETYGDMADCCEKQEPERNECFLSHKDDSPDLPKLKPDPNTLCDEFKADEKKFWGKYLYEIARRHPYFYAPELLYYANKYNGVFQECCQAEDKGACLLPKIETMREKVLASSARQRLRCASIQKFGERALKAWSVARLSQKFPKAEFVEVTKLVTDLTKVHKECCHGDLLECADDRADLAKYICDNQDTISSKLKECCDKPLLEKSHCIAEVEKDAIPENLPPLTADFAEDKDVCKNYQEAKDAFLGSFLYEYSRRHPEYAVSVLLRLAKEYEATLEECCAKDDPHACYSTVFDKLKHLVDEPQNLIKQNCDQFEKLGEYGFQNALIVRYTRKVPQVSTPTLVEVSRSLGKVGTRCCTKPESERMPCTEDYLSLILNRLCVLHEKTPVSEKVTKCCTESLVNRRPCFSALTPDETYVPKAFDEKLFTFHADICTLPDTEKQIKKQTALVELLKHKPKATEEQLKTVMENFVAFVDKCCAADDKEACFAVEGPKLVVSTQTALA
Method: (§1) The mixtures were excited by 285 nm and its emission spectra were recorded between 300 and 450 nm using a temperature-controlled fluorimeter (FP8500, Jasco, Japan)[13].

[2] = biological target: T1, protein D (albumin and α1-antitrypsin complex); test: Inhibition of the binding of TP4-A12I,A15I to protein D (band shift competition); parameters: species or system bovine
Method: Reagents were added to the protein A and protein D at the indicated concentrations and excited at […] and recorded for the emission spectrum between 300 to 450 nm.
(§2) Various AMPs (4 μg each) were incubated with fetal bovine serum (FBS) components at room temperature in 10 μl PC buffer for 30 min and subjected to horizontal native 8% PAGE, pH8.0 or pH8.8, and Coomassie Blue staining.

[3] = system: serum protein; conditions: cited from earlier work
Method: Albumin is the most abundant protein in human serum (HSA, 45 mg/ml), followed in descending order by α1-antitrypsin (A1AT, 3.5 mg/ml), transferrin (2.5 mg/ml), α2-macroglobulin (2.5 mg/ml), haptoglobulin (1.8 mg/ml), low-density lipoprotein (LDL, 1.2 mg/ml), α1-acid glycoprotein (AGP, 0.8 mg/ml) and high-density lipoprotein (HDL, 0.6 mg/ml)[11]. These proteins are involved in the transportation of fatty acids, cholesterols, toxins and drugs in the blood stream.

[4] = biological target: T2, protein A (albumin) (Bos taurus, UniProt P02769); test: Fluorescence emission spectrum (blue shift), protein A; type: binding, bovine; parameters: The homogeneities of collected protein A (albumin), protein B (α1-antitrypsin), protein C (serotransferrin) and protein D complex; from tissue; host or cells: fetal bovine serum (70% ammonium sulfate fraction, FPLC Mono Q); conditions: protein A 0.75 μM, PC buffer, 25 °C, 30 min; excitation 285 nm, emission 300–450 nm; reagent up to: sarkosyl 320, TP4-A12I,A15I 120, ibuprofen 24, phenytoin 20 μM
T2 sequence (P02769 25-607): as the sequence (P02769 25-607, one chain of several) above
Method: as §1

[5] = system: Escherichia coli K-12 (MG1655); test: Antimicrobial (bactericidal) activity against E. coli, effect of serum or serum proteins; type: cell-based; conditions: FBS, PBS, 37 °C (Fig. 1d)
Method: The Gram-negative bacteria Escherichia coli K-12 (MG1655) was cultured and plated in/on Luria–Bertani broth/agar plate (Merck Millipore, Darmstadt, Germany). The Gram-positive Staphylococcus aureus (ATCC 6538P) was cultured and plated in tryptic soy broth/agar (BD, MD, USA). The fungus Candida albicans (ATCC 14,053) was cultured and plated in YM broth/agar (BD, MD, USA). The bacteria were grown overnight, washed, and diluted 1:2000 in phosphate buffered saline (PBS), pH 7.5 or DMEM (Life Biotech, California, USA), pH 7.4. Bacteria (ca. 1 × 10^6 colony-forming units, cfu) were mixed with antimicrobial peptides (AMP) in 100 μl PBS and incubated at 37 °C (for bacteria) and at 30 °C (for fungus). Serial dilutions of each AMP-treated bacteria in PBS/DMEM supplemented with FBS were prepared and plated for the determination of remaining viable cells (expressed as cfu). At least three independent experiments were performed for each assay to determine the average value with standard deviation. MBC was defined as the lowest AMP concentration that kills 99.9% of the original inoculum.

[6] = system: fetal bovine serum (FBS); test: Band shift of AMPs by fetal bovine serum; type: binding
Method: as §2

[7] = biological target: T1, protein D (albumin and α1-antitrypsin complex); test: Band shift of AMPs by protein D; type: binding, bovine
[8] = biological target: T1, protein D (albumin and α1-antitrypsin complex); test: Pulling down of protein D by immobilized biotinylated TP4-A12I,A15I; type: binding, bovine
Method: (§3) Streptavidin-conjugated beads were incubated with 10 μg of biotinylated TP4-A12I,A15I peptides in 600 μl PC buffer for one hour on a rolling wheel. The immobilized biotinylated AMPs were further mixed with serum components in the indicated 600 μl buffer(s) at room temperature for 30 min on a rolling wheel, then washed twice with 600 μl respective buffer and subjected to SDS-PAGE and Coomassie Blue staining. Specific proteins were excised from SDS-PAGE gel and subjected to in-gel trypsin digestion and liquid chromatography-tandem mass spectrometry.

[9] = system: crude bovine serum; test: Pulling down of proteins from crude bovine serum by biotinylated TP4-A12I,A15I; type: binding
Method: as §3

[10] = biological target: T1, protein D (albumin and α1-antitrypsin complex); test: Biolayer interferometry, protein D; type: binding, bovine; conditions: biotinylated TP4-A12I,A15I
Method: (§4) The biolayer interferometry were measured by an Octet RED384 instrument (ForteBio). […] Serial dilutions of serum components in 200 μl PC buffer were used as analyte. Affinity (Kd) and kinetic parameters (kon and koff) were calculated from a global fit (1:1) of the data using the Octet RED384 software[27].

[11] = system: protein A/D mixture; test: FPLC S12 gel filtration of proteins A/D mixture with TP4-A12I,A15I; type: binding, bovine; conditions: reduced SDS-PAGE of eluates
From the text: To further investigate the differential binding of AMP to protein A and protein D, the TP4-A12I,A15I and protein A/D was mixed and subjected to gel filtration chromatography (FPLC S12). There was a front shoulder on the elution profile (Fig. 3g).

[12] = biological target: T1, protein D (albumin and α1-antitrypsin complex); test: Cross-linking of AMP-protein D complex and Western blotting; type: binding, bovine; conditions: AMP/protein D cross-linked with glutaraldehyde, PC buffer, 37 °C, 30 min; reduced SDS-PAGE, Western blotting
Method: Small aliquots of serum components (4 μg) in the presence/absence of AMPs (2 μg) were incubated with various concentrations of glutaraldehyde in 10 μl PC buffer at 37 °C for 30 min. […]

[13] = biological target: T2, protein A (albumin); conditions: biolayer interferometry, Octet RED384; immobilized biotinylated TP4-A12I,A15I
Method: as §4

[14] = biological target: T3, protein B (α1-antitrypsin) (Bos taurus, UniProt P34955); conditions: biolayer interferometry, Octet RED384; immobilized biotinylated TP4-A12I,A15I
T3 sequence (P34955 25-416): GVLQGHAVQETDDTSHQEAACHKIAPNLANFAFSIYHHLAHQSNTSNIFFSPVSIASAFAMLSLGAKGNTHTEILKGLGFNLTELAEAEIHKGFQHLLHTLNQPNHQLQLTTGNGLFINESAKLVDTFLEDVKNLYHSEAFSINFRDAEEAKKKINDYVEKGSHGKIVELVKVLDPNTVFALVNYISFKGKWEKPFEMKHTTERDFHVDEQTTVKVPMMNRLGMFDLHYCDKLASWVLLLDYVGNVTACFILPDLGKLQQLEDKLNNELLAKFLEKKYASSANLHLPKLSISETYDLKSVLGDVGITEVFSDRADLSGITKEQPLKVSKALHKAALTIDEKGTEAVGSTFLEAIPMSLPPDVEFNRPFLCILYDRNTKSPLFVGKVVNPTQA
Method: as §4

[15] = biological target: T2, protein A (albumin); test: Pulling down of protein A by immobilized biotinylated TP4-A12I,A15I; type: binding, bovine; parameters: The homogeneities of collected protein A (albumin), protein B (α1-antitrypsin), protein C (serotransferrin) and protein D complex; from tissue; host or cells: fetal bovine serum (70% ammonium sulfate fraction, FPLC Mono Q); conditions: biotinylated peptide on Streptavidin-conjugated beads; PC buffer, room temperature, 30 min
Method: as §3

Compound: O=C1NC(=O)C(c2ccccc2)(c2ccccc2)N1 [phenytoin]
- blue shift of fluorescence emission spectrum, protein D [1]: no blue shift was seen
- inhibition of binding of TP4-A12I,A15I to protein D ([2]; protein A and D mixture (20 μg each) pre-incubated with drug 30 min, then TP4-A12I,A15I (4 μg) at 37 °C, 30 min, native PAGE, pH8.8): not
- bound to serum protein [3]: 90%
- blue shift of fluorescence emission spectrum, protein A [4]: no blue shift was seen

Compound: CC[C@H](C)[C@H](NC(=O)[C@H](CO)NC(=O)[C@H](Cc1ccccc1)NC(=O)[C@H](CC(C)C)NC(=O)CNC(=O)CNC(=O)[C@@H](NC(=O)[C@@H](NC(=O)[C@H](Cc1c[nH]cn1)NC(=O)[C@H](Cc1c[nH]cn1)NC(=O)[C@@H](NC(=O)[C@@H](N)Cc1ccccc1)[C@@H](C)CC)[C@@H](C)CC)[C@@H](C)CC)C(=O)NCC(=O)N[C@@H](CCCCN)C(=O)N[C@H](C(=O)N[C@H](C(=O)N[C@@H](Cc1c[nH]cn1)C(=O)N[C@@H](CCCNC(=N)N)C(=O)N[C@@H](CC(C)C)C(=O)N[C@H](C(=O)N[C@@H](CCCNC(=N)N)C(=O)N[C@@H](CCCNC(=N)N)C(=O)N[C@@H](CCCNC(=N)N)C(=O)N[C@@H](CCCNC(=N)N)C(=O)N[C@@H](CCCNC(=N)N)C(=O)O)[C@@H](C)CC)[C@@H](C)CC)[C@@H](C)CC [TP4-A12I,A15I]
- susceptibility of bactericidal activity to serum's inhibition (E. coli), relative to TP4 [5]: more susceptible to serum’s inhibition
- location of TP4-A12I,A15I-binding components after ammonium sulfate fractionation (band shift) ([6]; 30%, 50%, 70% and 90% saturation, band shift): mainly located at the 70% ammonia sulfate saturation fraction
- FBS-mediated band shift of TP4 mutants ([6]; AMP 4 μg with FBS, 10 μl PC buffer, room temperature, 30 min, horizontal native 8% PAGE, pH8.0): enhanced the shift
- change of binding ability to protein D by mutation of TP4 ([7]; band shift, Supplementary Fig. 3b, TP4 mutants 4 μg, 8% horizontal native PAGE): increased the binding ability
- binding to protein D (band shift, Fig. 7b) ([7]; protein A and D mixture (20 μg each), TP4-A12I,A15I 4 μg, 37 °C, 30 min, native PAGE, pH8.8): only protein D, but not protein A, was bound
- AMP-binding ability of protein D reduced by β-ME (band shift) ([7]; protein D reduced by β-ME, band shift (Fig. 4e)): destroyed
- binding of protein D in the presence of SDS (dimerization inhibited) ([8]; 2 × SDS, equivalent to 0.125% SDS (w/v), pulling down, 15% non-reducing SDS-PAGE): unable to bind
- protein retained on immobilized TP4-A12I,A15I after β-ME wash ([8]; pulled-down protein D dissociated by β-ME (1X = 0.25%), 8% reduced SDS-PAGE): only protein B was still tightly associated
- binding of protein D constituents after dissociation by β-ME ([8]; β-ME 0.1–0.4%, pulling down (Fig. 4f)): some protein D constituents were able to bind
- location of TP4-A12I,A15I-binding components after ammonium sulfate fractionation (pulling down) ([9]; 30%, 50%, 70% and 90% saturation, pulling down): mainly located at the 70% ammonia sulfate saturation fraction
- proteins pulled down from crude serum (major band) ([9]; biotinylated TP4-A12I,A15I on Streptavidin-conjugated beads, SDS-PAGE, LC/MS/MS, major band): major band consisted of albumin and α1-antitrypsin
- proteins pulled down from crude serum (minor band) ([9]; biotinylated TP4-A12I,A15I on Streptavidin-conjugated beads, SDS-PAGE, LC/MS/MS, minor band): minor band was identified to be apolipoprotein AI (Apo-AI)
- reversibility and potency of binding of protein D [10]: potent and reversible binding
- blue shift of fluorescence emission spectrum, protein D [1]: blue shift of fluorescence emission spectrum of protein D was observed
- proposed binding site in protein D ([2]; inferred from competition and fluorescence): probably at the drug-binding site II of albumin in the protein D complex
- co-elution with albumin in gel filtration [11]: co-eluted with albumin only at the front shoulder fractions
- association with proteins after cross-linking [12]: associated with protein A, protein B as well as monomeric and dimeric protein D
- Kd (protein A) [13]: not detectable
- Kd (protein B) [14]: not detectable
- binding to protein A (pulling down) [15]: not by protein A
- blue shift of fluorescence emission spectrum, protein A [4]: did not cause blue shift
